For test [1], the system named is HeLa. Description: Proliferation assay (crystal violet), HeLa. The following applies: Homo sapiens, HeLa, 96 h, HeLa cells; 4 days incubation; crystal violet staining; read-out: IC50 inhibition of proliferation, HeLa. The test is classed as cell-based. The gist of the method: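 Seed 1000–5000 cells/well, 10% FCS; 24 h later replace medium and add compound (0.001–10 μM, 0.5% DMSO); incubate 4 d; glutaraldehyde fix, 0.1% crystal violet pH 3.0, elute with 10% acetic acid; A595; 4-parameter IC50.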

The subject of test [2] is human cervical tumor cell line HeLa (ATCC CCL-2). Description: SAC-Formation - Paclitaxel-Induced Assay. The test is classed as cell-based. The settings on record: Homo sapiens, HeLa, 24 h, HeLa cells, paclitaxel 0.05 μM, test range 0.005 μM-20 μM, read-out: IC50 [mol/l] SAC-Formation - Paclitaxel-Induced Assay. The method, boiled down: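 HeLa cells incubated overnight at 37° C, then given paclitaxel (0.05 μM final) plus test compound (0.005–20 μM, 0.5% DMSO) together for 24 h at 37° C. Fixed cells stained for phospho-histone H3 Ser10 (mitotic cells) and Hoechst 33342 (cell count); imaging-derived mitotic index fitted by four-parameter Hill equation.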

Results on 19 compounds are retold here after patent US20170334899A1, “AMINO-SUBSTITUTED ISOTHIAZOLES” (Bayer Pharma Aktiengesellschaft, priority 2014, published 2017).

In the case of `CNS(=O)(=O)c1ccc(NC(=O)c2c(C)nsc2Nc2cnc3ccccc3n2)cc1` [Example 111, 3-Methyl-N-[4-(methylsulfannoyl)phenyl]-5-(quinoxalin-2-ylamino)-1,2-thiazole-4-carboxamide], the IC50 in test [1] came out at 4400 nM; in test [2], 130 nM.

As to `CC(=O)N(C)CCOc1ccc(NC(=O)c2c(C)nsc2Nc2nc3c(C(F)(F)F)cccc3s2)cn1` [Example 112, N-(6-{2-[Acetyl(methyl)amino]-ethoxy}pyridin-3-yl)-3-methyl-5-{[4-(trifluoromethyl)-1,3-benzothiazol-2-yl]amino}-1,2-thiazole-4-carboxamide], the IC50 in test [1] stood at 8800 nM; in test [2] it was 800 nM.

As to `Cc1nsc(Nc2cnc3ccccc3n2)c1C(=O)Nc1cccc(C(=O)N2CCCC2)c1` [Example 113, 3-Methyl-N-[3-(pyrrolidin-1-ylcarbonyl)phenyl]-5-(quinoxalin-2-ylamino)-1,2-thiazole-4-carboxamide], the IC50 in test [1] stood at 10000 nM; in test [2] it was 1700 nM.

Consider `Cc1nsc(Nc2cc(C#N)ccn2)c1C(=O)Nc1cccc(C(=O)N2CCCC2)c1` [Example 114, 5-[(4-Cyanopyridin-2-yl)amino]-3-methyl-N-[3-(pyrrolidin-1-ylcarbonyl)phenyl]-1,2-thiazole-4-carboxamide], for which the IC50 is 10000 nM in test [1] and 1300 nM in test [2].

Consider `Cc1nsc(Nc2cnc3ccccc3n2)c1C(=O)Nc1ccc(S(C)(=O)=O)cc1` [Example 115, 3-Methyl-N-[4-(methylsulfonyl)phenyl]-5-(quinoxalin-2-ylamino)-1,2-thiazole-4-carboxamide], for which the IC50 came out at 4400 nM in test [1] and 3700 nM in test [2].

Consider `CCNS(=O)(=O)c1ccc(NC(=O)c2c(C)nsc2Nc2cnc3ccccc3n2)cc1` [Example 116, N-[4-(Ethylsulfamoyl)phenyl]-3-methyl-5-(quinoxalin-2-ylamino)-1,2-thiazole-4-carboxamide], for which the IC50 in test [1] amounted to 3000 nM; in test [2], 1500 nM.

Take `Cc1nsc(Nc2cnc3ccccc3n2)c1C(=O)Nc1ccc(Oc2cccc(C(F)(F)F)c2)nc1` [Example 117, 3-Methyl-5-(quinoxalin-2-ylamino)-N-{6-[3-(trifluoromethyl)phenoxy]pyridin-3-yl}-1,2-thiazole-4-carboxamide]: the values for the IC50 in test [1] and in test [2] were 880 nM and 1500 nM, respectively.

Regarding `Cc1nsc(Nc2ccc(C#N)cn2)c1C(=O)Nc1ccc(Oc2cccc(C(F)(F)F)c2)nc1` [Example 118, 5-[(5-Cyanopyridin-2-yl)amino]-3-methyl-N-{6-[3-(trifluoromethyl)phenoxy]pyridin-3-yl}-1,2-thiazole-4-carboxamide], the values for the IC50 in test [1] and in test [2] were 600 nM and 53 nM, respectively.

With `Cc1nsc(Nc2cc(C#N)ccn2)c1C(=O)Nc1ccc(Oc2cccnc2)nc1` [Example 119, 5-[(4-Cyanopyridin-2-yl)amino]-3-methyl-N-[6-(pyridin-3-yloxy)pyridin-3-yl]-1,2-thiazole-4-carboxamide], the IC50 was found to be 5300 nM in test [1] and 20000 nM in test [2].

Take `Cc1nsc(Nc2cnc(C(F)(F)F)cn2)c1C(=O)Nc1ccc(OCC2CCN(CCF)C2)nc1` (centres unmarked) [Example 121, N-(6-{[1-(2-fluoroethyl)pyrrolidin-3-yl]methoxy}pyridin-3-yl)-3-methyl-5-{[5-(trifluoromethyl)pyrazin-2-yl]amino}-1,2-thiazole-4-carboxamide]: the figures for the IC50 in test [1] and in test [2] were 820 nM and 43 nM, respectively.

Turning to `Cc1nsc(Nc2cnc(C(F)(F)F)cn2)c1C(=O)Nc1ccc(OCC2CCN(CC(F)F)C2)nc1` (centres unmarked) [Example 122, N-(6-{[1-(2,2-difluoroethyl)pyrrolidin-3-yl]methoxy}pyridin-3-yl)-3-methyl-5-{[5-(trifluoromethyl)pyrazin-2-yl]amino}-1,2-thiazole-4-carboxamide], the IC50 in test [1] was 280 nM; in test [2] it was 30 nM.

`Cc1nsc(Nc2cnc(C(F)(F)F)cn2)c1C(=O)Nc1ccc(OCC2CCN(CC(F)(F)F)C2)nc1` (centres unmarked) [Example 123, 3-Methyl-N-(6-{[1-(2,2,2-trifluoroethyl)pyrrolidin-3-yl]methoxy}pyridin-3-yl)-5-{[5-(trifluoromethyl)pyrazin-2-yl]amino}-1,2-thiazole-4-carboxamide]: the IC50 in test [1] is 130 nM; in test [2], 24 nM.

Turning to `Cc1nsc(Nc2cnc(C(F)(F)F)cn2)c1C(=O)Nc1ccc(OCC2CCN(CCC(F)(F)F)C2)nc1` (centres unmarked) [Example 124, 3-methyl-5-{[5-(trifluoromethyl)pyrazin-2-yl]amino}-N-(6-{[1-(3,3,3-trifluoropropyl)pyrrolidin-3-yl]methoxy}pyridin-3-yl)-1,2-thiazole-4-carboxamide], the IC50 in test [1] amounted to 360 nM; in test [2], 38 nM.

Take `Cc1nsc(Nc2cnc(C(F)(F)F)cn2)c1C(=O)Nc1ccc(OC[C@@H]2CCN(CC(F)F)C2)nc1` [Example 127, N-(6-{[(3R)-1-(2,2-difluoroethyl)pyrrolidin-3-yl]methoxy}pyridin-3-yl)-3-methyl-5-{[5-(trifluoromethyl)pyrazin-2-yl]amino}-1,2-thiazole-4-carboxamide]: the IC50 in test [1] amounted to 460 nM; in test [2], 83 nM.

As for `Cc1nsc(Nc2cnc(C(F)(F)F)cn2)c1C(=O)Nc1ccc(OC[C@@H]2CCN(CC(F)(F)F)C2)nc1` [Example 128, 3-Methyl-N-(6-{[(3R)-1-(2,2,2-trifluoroethyl)pyrrolidin-3-yl]methoxy}pyridin-3-yl)-5-{[5-(trifluoromethyl)pyrazin-2-yl]amino}-1,2-thiazole-4-carboxamide], the IC50 in test [1] is 230 nM; in test [2] it was 70 nM.

Take `Cc1nsc(Nc2cnc(C(F)(F)F)cn2)c1C(=O)Nc1ccc(OC[C@@H]2CCN(CCC(F)(F)F)C2)nc1` [Example 129, 3-Methyl-5-{[5-(trifluoromethyl)pyrazin-2-yl]amino}-N-(6-{[(3R)-1-(3,3,3-trifluoropropyl)pyrrolidin-3-yl]methoxy}pyridin-3-yl)-1,2-thiazole-4-carboxamide]: the IC50 in test [1] turned out to be 250 nM; in test [2], 84 nM.

Regarding `Cc1nsc(Nc2cnc(C(F)(F)F)cn2)c1C(=O)Nc1ccc(O[C@@H]2CCN(CC(F)F)C[C@@H]2F)nc1` [Example 137, N-(6-{[(3S,4R)-1-(2,2-difluoroethyl)-3-fluoropiperidin-4-yl]oxy}pyridin-3-yl)-3-methyl-5-{[5-(trifluoromethyl)pyrazin-2-yl]amino}-1,2-thiazole-4-carboxamide], the values for the IC50 in test [1] and in test [2] were 180 nM and 32 nM, respectively.

With `Cc1nsc(Nc2cnc(C(F)(F)F)cn2)c1C(=O)Nc1ccc(O[C@@H]2CCN(CC(F)(F)F)C[C@@H]2F)nc1` [Example 138, N-(6-{[(3S,4R)-3-fluoro-1-(2,2,2-trifluoroethyl)piperidin-4-yl]oxy}pyridin-3-yl)-3-methyl-5-{[5-(trifluoromethyl)pyrazin-2-yl]amino}-1,2-thiazole-4-carboxamide], the results for the IC50 in test [1] and in test [2] were 140 nM and 170 nM, respectively.

Turning to `Cc1nsc(Nc2cnc(C(F)(F)F)cn2)c1C(=O)Nc1ccc(O[C@@H]2CCN(CCC(F)(F)F)C[C@@H]2F)nc1` [Example 139, N-(6-{[(3S,4R)-3-fluoro-1-(3,3,3-trifluoropropyl)piperidin-4-yl]oxy}pyridin-3-yl)-3-methyl-5-{[5-(trifluoromethyl)pyrazin-2-yl]amino}-1,2-thiazole-4-carboxamide], the IC50 in test [1] turned out to be 260 nM; in test [2], 89 nM.
